Experimental data: paper PMC4128814, “A High Throughput Screen Identifies Potent and Selective Inhibitors to Human Epithelial 15-Lipoxygenase-2” (PLoS ONE, 2014)

Legend:
5-LOX = biological target: T1, 5-LOX (Homo sapiens, UniProt P09917); test: Lipoxygenase UV-Vis assay, 5-LOX crude extract; assay type: biochemical; conditions: estimated from one inhibitor point at 20 µM; 10 µM AA
T1 construct: made in house
T1 sequence (P09917 1-674): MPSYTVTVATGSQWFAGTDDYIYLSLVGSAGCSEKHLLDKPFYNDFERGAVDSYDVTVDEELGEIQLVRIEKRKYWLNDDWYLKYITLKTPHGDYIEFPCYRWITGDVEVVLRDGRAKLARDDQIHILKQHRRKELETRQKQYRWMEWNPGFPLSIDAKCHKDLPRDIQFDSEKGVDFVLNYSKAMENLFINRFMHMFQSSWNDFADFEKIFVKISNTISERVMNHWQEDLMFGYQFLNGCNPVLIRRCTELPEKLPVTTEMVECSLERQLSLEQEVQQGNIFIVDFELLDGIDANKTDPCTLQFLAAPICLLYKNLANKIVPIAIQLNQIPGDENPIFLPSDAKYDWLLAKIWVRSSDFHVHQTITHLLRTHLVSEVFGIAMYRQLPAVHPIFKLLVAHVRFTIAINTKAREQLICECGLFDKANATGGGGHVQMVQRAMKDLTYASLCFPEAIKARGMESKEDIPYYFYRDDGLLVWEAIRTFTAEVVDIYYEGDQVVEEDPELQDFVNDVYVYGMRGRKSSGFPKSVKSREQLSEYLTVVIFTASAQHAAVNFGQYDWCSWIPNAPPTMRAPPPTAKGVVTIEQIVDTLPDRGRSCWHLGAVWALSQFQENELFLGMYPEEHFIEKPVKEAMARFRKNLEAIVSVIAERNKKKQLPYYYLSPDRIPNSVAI
Protocol: (§1) Human leukocyte 5-lipoxygenase (5-LOX) was expressed as a non-tagged protein and used as a crude ammonium sulfate protein fraction, as published previously, [20].
(§2) The reactions were initiated by adding 200 nM 15-LOX-2, 30 nM 12-LOX, 40 nM 15-LOX-1, or approximately 100–300 nM (5–10 µL) of 5-LOX crude extract to a cuvette with 2 mL reaction buffer, constantly stirred using a magnetic stir bar at room temperature (22°C). Reaction buffers used for various LOX isozymes were as follows: 25 mM HEPES (pH 7.3), 0.3 mM CaCl2, 0.1 mM EDTA, 0.2 mM ATP, 0.01% Triton X-100, 10 µM AA for the crude, ammonium sulfate precipitated 5-LOX; and 25 mM HEPES (pH 7.5), 0.01% Triton X-100, 10 µM AA for 15-LOX-2, 15-LOX-1, and 12-LOX. The substrate concentration was quantitatively determined by allowing the enzymatic reaction to go to completion in the presence of 15-LOX-2. […] The data were then plotted against inhibitor concentration, followed by a hyperbolic saturation curve fit (assuming total enzyme concentration [E]≪IC50). […] All inhibitors were stored at −20°C in DMSO. NDGA was utilized as positive control for the selectivity assays for the various LOX isozymes.

12-LOX = biological target: T2, 12-LOX (Homo sapiens, UniProt P18054); test: Lipoxygenase UV-Vis assay, 12-LOX; assay type: biochemical; conditions: estimated from one inhibitor point at 20 µM; 10 µM AA
T2 construct: His6 (N); made in house
T2 sequence (P18054 1-663): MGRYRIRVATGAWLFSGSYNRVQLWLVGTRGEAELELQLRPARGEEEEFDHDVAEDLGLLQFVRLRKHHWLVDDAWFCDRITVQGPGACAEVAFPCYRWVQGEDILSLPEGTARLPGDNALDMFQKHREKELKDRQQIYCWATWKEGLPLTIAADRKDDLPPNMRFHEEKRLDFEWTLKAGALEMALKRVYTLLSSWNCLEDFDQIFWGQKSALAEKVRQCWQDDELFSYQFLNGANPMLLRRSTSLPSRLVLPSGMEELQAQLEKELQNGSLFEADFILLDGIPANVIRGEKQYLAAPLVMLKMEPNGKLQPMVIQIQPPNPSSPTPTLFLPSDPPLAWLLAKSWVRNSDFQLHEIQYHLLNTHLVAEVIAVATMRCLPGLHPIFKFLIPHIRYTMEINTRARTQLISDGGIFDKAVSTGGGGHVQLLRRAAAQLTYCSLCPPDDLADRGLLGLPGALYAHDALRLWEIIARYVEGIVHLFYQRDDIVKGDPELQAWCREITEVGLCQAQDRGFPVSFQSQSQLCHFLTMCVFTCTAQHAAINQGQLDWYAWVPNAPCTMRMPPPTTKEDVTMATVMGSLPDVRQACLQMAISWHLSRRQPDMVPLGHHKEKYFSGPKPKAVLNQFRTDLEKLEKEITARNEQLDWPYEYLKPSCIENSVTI
Protocol: as §1, §2

IC50 (5-LOX)	IC50 (12-LOX)	SMILES
> 100 µM	> 100 µM	Cc1ccc(CSc2ncn(-c3ccccc3)n2)cc1 [MLS000536924]
> 50 µM	> 100 µM	Clc1ccc(-c2nnc(C3CCCCC3)o2)cc1 [MLS000545091]
